Data on nine molecules can be found in patent US10981932B2, “Macrocyclic indole derivatives” (Bayer Aktiengesellschaft, priority 2016, dated 2021).

“And” between values parts separate entries of the source, which are not always exact repeats. Identical values can stand only once. Like-named read-outs stand apart in the source and are kept apart here.

Data set [1] has as its target MCL-1 (Homo sapiens, UniProt Q07820). The data set can be described thus: Protein-protein interaction assay MCL-1/Noxa BH3 peptide (MCL-1 assay), TR-FRET. It is filed as binding. As to conditions: MBP-MCL-1 / Noxa BH3-derived peptide, median. A digest of the protocol: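 MBP-MCL-1 (1 nM final) was preincubated 10 min at 22 °C with compounds (11 concentrations, 0.1 nM–20 μM, duplicates) in Tris pH 7 buffer with NaCl, KF, Tween-20, DTT and BGG. After 1 h at 22 °C in the dark plus overnight at 4 °C, anti-MBP Eu-cryptate/streptavidin-XL665 TR-FRET was read; IC50 came from a 4-parameter fit.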
For orientation: TR-FRET usually uses a lanthanide donor and a delayed reading to cut background.

In data set [2] the test system is A2780. The data set can be described thus: Anti-proliferative effect (CellTiter-Glo, 72 h), A2780. It is filed as cell-based. As to conditions: A2780 cells, median, read-out: IC50 antiproliferation assay A2780 [M] (median). A digest of the protocol:
(§1)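 Anti-proliferative activity is derived from ATP-based luminescence (CellTiter-Glo) in cells exposed to compound for 72 h at 37 °C, set against a time zero plate read at seeding.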

Data set [3] has as its system MV-4-11. The data set can be described thus: Anti-proliferative effect (CellTiter-Glo, 72 h), MV-4-11. It is filed as cell-based. The conditions noted are these: MV-4-11 cells, median, read-out: IC50 antiproliferation assay MV-4-11 [M] (median). As for the experimental part: Assessment of the Anti-Proliferative Effect of Compounds in Different Cell Lines
The impact of compounds on the proliferation of different cell lines was assessed using the CellTiter-Glo® Luminescent Cell Viability reagent from Promega (G7573). Of note, SUDHL10 and SUDHL5 (DLBCL), NCI-H929 (Multiple Myeloma), A2780 (ovarian carcinoma) as well as MV-4-11(AML) cells are sensitive to MCL-1 inhibition.
In parallel, cells were plated in a reference (day 0) plate for time zero determination.
Rim wells were excluded. The cells were incubated for 72 h hours in a humidified incubator at 37° C. The day 0 plate was measured by adding 30 μl/well of CTG solution (CellTiter-Glo® Luminescent Cell Viability reagent, Promega G7573) to time zero wells in the reference plate followed by a 10 minutes incubation and luminescence reading at 0.1 ms, using the PHERAstar FS microplate reader (BMG Labtech).
After 72 h incubation, the treated plates were measured in the same way as the day 0 plate mentioned above.
On the technique in general: ATP-based viability assays read luminescence as a measure of living cells.

Data set [4] deals with SUDHL5. The data set can be described thus: Induction of caspase-3/7 activity (Caspase-Glo 3/7), SUDHL5. It is filed as cell-based. The conditions noted are these: caspase-3/7 induction, SUDHL5 cells, 3 h treatment; median. A digest of the protocol:
(§2)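 Caspase-Glo 3/7 luminescence measured after 3 h compound exposure at 37 °C in SUDHL10 and SUDHL5 cells. EC50 values come from background-corrected signals, with curve bottom set to 1 and plateau set to maximal induction by the reference compound.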

Data set [5] concerns SUDHL10. The data set is described as follows: Induction of caspase-3/7 activity (Caspase-Glo 3/7), SUDHL10. It is filed as cell-based. As to conditions: caspase-3/7 induction, SUDHL10 cells, 3 h treatment; median. A digest of the protocol: as §2
In data set [6] the test system is SUDHL5. The data set is described as follows: Anti-proliferative effect (CellTiter-Glo, 72 h), SUDHL5. It is filed as cell-based. The conditions noted are these: SUDHL5 cells, antiproliferation, 72 h incubation, median, read-out: Antiproli SUDHL5 [M] (median). A digest of the protocol:
as §1

Data set [7] has as its system SUDHL10. The data set is described as follows: Anti-proliferative effect (CellTiter-Glo, 72 h), SUDHL10. It is filed as cell-based. The conditions noted are these: SUDHL10 cells, antiproliferation, 72 h incubation, median, read-out: Antiproli SUDHL10 [M] (median). A digest of the protocol:
as §1

Data set [8] concerns OPM2. The data set can be described thus: Anti-proliferative effect (CellTiter-Glo, 72 h), OPM2. It is filed as cell-based. The conditions noted are these: OPM2 cells, median, read-out: IC50 antiproliferation assay OPM2 [M] (median). A digest of the protocol: as §1
Data set [9] concerns SUDHL5. The data set is described as follows: Induction of cytotoxicity (CellTiter-Glo, 5 h), SUDHL5. The conditions noted are these: read-out: Cytotox SUDHL5 [M] (median); SUDHL5 cells, cytotoxicity induction, CellTiter-Glo, 5 h incubation, median.
Data set [10] deals with SUDHL10. The data set can be described thus: Induction of cytotoxicity (CellTiter-Glo, 5 h), SUDHL10. The conditions noted are these: read-out: Cytotox SUDHL10 [M] (median); SUDHL10 cells, cytotoxicity induction, CellTiter-Glo, 5 h incubation, median.

The term EC50 denotes the concentration that produces a half-maximal response.

MCL-1, sequence (Q07820 whole entry): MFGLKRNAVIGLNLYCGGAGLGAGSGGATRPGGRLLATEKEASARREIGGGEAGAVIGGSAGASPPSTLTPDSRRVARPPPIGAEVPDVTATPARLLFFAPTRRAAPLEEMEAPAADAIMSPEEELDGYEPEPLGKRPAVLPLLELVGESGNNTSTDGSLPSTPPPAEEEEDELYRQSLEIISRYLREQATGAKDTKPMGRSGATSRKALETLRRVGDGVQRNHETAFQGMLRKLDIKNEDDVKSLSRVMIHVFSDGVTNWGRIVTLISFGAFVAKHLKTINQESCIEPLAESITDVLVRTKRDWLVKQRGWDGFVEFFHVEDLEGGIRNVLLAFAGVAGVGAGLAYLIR

For the molecule `CCc1nn(C)c2c1-c1cccc3c(CCCOc4cccc5cc(Cl)ccc45)c(C(=O)O)n(c13)CCCCOC2` (single isomer, unassigned; enantiomer 1) [Example 305, 7-{3-[(6-chloronaphthalen-1-yl)oxy]propyl}-3-ethyl-1-methyl-1,10,11,12,13,15-hexahydropyrazolo[4′,3′:9,10][1,6]oxazacycloundecino[8,7,6-hi]indole-8-carboxylic Acid (Enantiomer 1)], the IC50 in data set [1] was 5.36 nM; in data set [2] it was greater than 3.3e-05 M; in data set [3] (Homo sapiens, MV4-11, 72 h), 1.36e-05 M.
`Cc1c2c(nn1C)COCCCCn1c(C(=O)O)c(CCCOc3cccc4ccccc34)c3cccc-2c31` (single isomer, unassigned; enantiomer 2) [Example 1-38, (−)-2,3-dimethyl-7-[3-(naphthalen-1-yloxy)propyl]-2,10,11,12,13,15-hexahydropyrazolo[4′,3′:9,10][1,6]oxazacycloundecino[8,7,6-hi]indole-8-carboxylic Acid (Enantiomer 2)]: the IC50 in data set [1] is 75.1 nM; in data set [6], 2.3e-05 M; in data set [7] it was 1.49e-05 M; in data set [8], 3.22e-05 M; in data set [2], greater than 3.3e-05 M; in data set [9], greater than 3.3e-05 M. Further, the IC50 in data set [10] was greater than 3.3e-05 M. Moreover, the EC50 in data set [4] and in [5] was greater than 33 µM in each case.
Turning to `Cc1nn(C)c2c1-c1cccc3c(CCCOc4cccc5ccccc45)c(C(=O)O)n(c13)CCCN(c1ccc(N3CCOCC3)cc1)C2` (single isomer, unassigned; enantiomer 2) [Example 1-100, 9,11-Dimethyl-7-[4-(morpholin-4-yl)phenyl]-1-[3-(1-naphthyloxy)propyl]-4,5,6,7,8,9-hexahydropyrazolo[3′,4′:7,8][1,5]diazecino[9,10,1-hi]indole-2-carboxylic Acid (Enantiomer 2)], the IC50 in [1] was 35.9 nM; in data set [6] it was 9.42e-06 M; in data set [7], 6.21e-06 M; in data set [8], 1.94e-05 M; in data set [2], 1.38e-05 M; in [9] it was greater than 3.3e-05 M. In addition, in data set [10], the IC50 was > 3.3e-05 M and 3.29e-05 M. The EC50 in data set [4] was 28.4 µM; in data set [5] it was > 33 µM and 30.6 µM.
Turning to `CCS(=O)(=O)N1CCN(c2ccc(N3CCCn4c(C(=O)O)c(CCCOc5cccc6ccccc56)c5cccc(c54)-c4c(C)nn(C)c4C3)cc2)CC1` (single isomer, unassigned; enantiomer 2) [Example 1-110, 7-{4-[4-(Ethylsulfonyl)piperazin-1-yl]phenyl}-9,11-dimethyl-1-[3-(1-naphthyloxy)propyl]-4,5,6,7,8,9-hexahydropyrazolo[3′,4′:7,8][1,5]diazecino[9,10,1-hi]indole-2-carboxylic Acid (Enantiomer 2)], the IC50 in data set [1] stood at 58.1 nM; in data set [6] it was 4.04e-06 M; in data set [7] it was 2.58e-06 M; in data set [8] it was 8.62e-06 M; in [2] it was 7.54e-06 M; in [9], 1.53e-05 M. Further, the IC50 in data set [10] worked out at 1.69e-05 M. In addition, the EC50 in data set [4] and in data set [5] was 15.3 µM in each case.
`CN1CCCn2c(C(=O)O)c(CCCOc3cccc4ccccc34)c3cccc(c32)-c2c(COc3ccc(-n4ccccc4=O)cc3)nn(C)c2C1` (single isomer, unassigned; enantiomer 2) [Example 1-116, 7,9-Dimethyl-1-[3-(1-naphthyloxy)propyl]-11-{[4-(2-oxopyridin-1(2H)-yl)phenoxy]methyl}-4,5,6,7,8,9-hexahydropyrazolo[3′,4′:7,8][1,5]diazecino[9,10,1-hi]indole-2-carboxylic Acid (Enantiomer 2)]: the IC50 was 13.7 nM in data set [1]; 3.25e-06 M in data set [6]; 1.18e-05 M in data set [7]; 2.96e-05 M in data set [8]; greater than 3.3e-05 M in [2] (Homo sapiens, A2780, 72 h); 1.32e-05 M in data set [9]. Besides, the IC50 in data set [10] was greater than 3.3e-05 M. The values for the EC50 in data set [4] and in data set [5] were 16.9 µM and 19.9 µM, respectively.
`Cn1nc(COc2ccc(N3CCOCC3)cc2)c2c1COCCCCn1c(C(=O)O)c(CCCOc3cccc4ccccc34)c3cccc-2c31` (single isomer, unassigned; enantiomer 2) [Example 123, 1-methyl-3-{[4-(morpholin-4-yl)phenoxy]methyl}-7-[3-(naphthalen-1-yloxy)propyl]-1,10,11,12,13,15-hexahydropyrazolo[4′,3′:9,10][1,6]oxazacycloundecino[8,7,6-hi]indole-8-carboxylic Acid (Enantiomer 2)]: the IC50 in [1] amounted to 3.14 nM; in [6], 2.28e-06 M; in [7] it was 1.01e-05 M; in [8] it was 4.32e-06 M; in data set [2], 1.14e-05 M; in data set [9], 3.13e-06 M. In addition, the IC50 in data set [10] was determined as 2.1e-05 M. For the same molecule, the EC50 came out at 4.11 µM in data set [4] and 7.36 µM in data set [5].
In the case of `CCOCc1nn(C)c2c1-c1cccc3c(CCCOc4cccc5ccccc45)c(C(=O)O)n(c13)CCCCOC2` (single isomer, unassigned; enantiomer 2) [Example 170, 3-(ethoxymethyl)-1-methyl-7-[3-(naphthalen-1-yloxy)propyl]-1,10,11,12,13,15-hexahydropyrazolo[4′,3′:9,10][1,6]oxazacycloundecino[8,7,6-hi]indole-8-carboxylic Acid (Enantiomer 2)], the IC50 is 2.97 nM in [1]; 1.01e-05 M in data set [6]; 4.36e-06 M in [7]; 1.34e-05 M in data set [8]; 2.67e-05 M in data set [2]; 6.94e-06 M in data set [9]. For the same molecule, the IC50 in data set [10] worked out at 2e-05 M. The EC50 was 5.36 µM in data set [4] and 15.6 µM in data set [5].
Consider `CCc1nn(C)c2c1-c1cccc3c(CCCOc4cccc5cc(Cl)ccc45)c(C(=O)O)n(c13)CCCCOC2` (single isomer, unassigned; enantiomer 2) [Example 306, 7-{3-[(6-chloronaphthalen-1-yl)oxypropyl}-3-ethyl-1-methyl-1,10,11,12,13,15-hexahydropyrazolo[4′,3′:9,10](1,6]oxazacycloundecino[8,7,6-hi]indole-8-carboxylic Acid (Enantiomer 2)], for which the IC50 stood at 286 nM in data set [1], 1.02e-05 M in [2] and 1.5e-05 M in data set [3].
The corresponding values for `Cc1c2c(nn1C)COCCCCn1c(C(=O)O)c(CCCOc3cccc4cc(C(F)(F)F)ccc34)c3cccc-2c31` (single isomer, unassigned; enantiomer 2) [Example 312, 2,3-dimethyl-7-(3-{[6-(trifluoromethyl)naphthalen-1-yl]oxy}propyl)-2,10,11,12,13,15-hexahydropyrazolo[4′,3′:9,10][1,6]oxazacycloundecino[8,7,6-hi]indole-8-carboxylic Acid (Enantiomer 2)] are 22 nM, 1.05e-05 M and 1.28e-05 M.
